Patent publication US8618289B2 (Ambit Biosciences Corporation, priority 2008, dated 2013)

Key:
[1] = test system: MEK1 phosphorylation in the A375 human melanoma cell line; assay: cells; settings: A-375, read-out: pMEK IC50
A375 cells = assay: cells; settings: Homo sapiens, A-375, read-out: A375 Viability EC50

Structure (SMILES)	IC50 [1] [nM]	EC50 (A375 cells) [nM]
COc1cc2ncnc(Oc3cccc(NC(=O)Nc4cc(C(C)(C)C)on4)c3)c2cc1OCCCN1CCOCC1 [Ex 22, 1-(5-tert-butylisoxazol-3-yl)-3-(3-(7-methoxy-6-(3-morpholinopropoxy)quinazolin-4-yloxy)phenyl)urea]	< 250	< 250
COc1cc2ncnc(Sc3cccc(NC(=O)Nc4cc(C(C)(C)C)on4)c3)c2cc1OCCCS(C)(=O)=O [Ex 64, 1-(5-tert-butylisoxazol-3-yl)-3-(3-(7-methoxy-6-(3-(methylsulfonyl)propoxy)quinazolin-4-ylthio)phenyl)urea]	< 250	250 to 500
COc1cc2ncnc(Sc3cccc(NC(=O)Nc4cc(C(C)(C)C)on4)c3)c2cc1OCCN1CCS(=O)(=O)CC1 [Ex 71, 1-(5-tert-butyl-isoxazol-3-yl)-3-(3-{6-[2-(1,1-dioxo-thiomorpholin-4-yl)-ethoxy]-7-methoxy-quinazolin-4-ylsulfanyl}-phenyl)-urea]	< 250	250 to 500
COc1cc2nc(Cl)nc(Sc3cccc(NC(=O)Nc4cc(C(C)(C)C)on4)c3)c2cc1OC [Ex 89, 1-(5-tert-butylisoxazol-3-yl)-3-(3-(2-chloro-6,7-dimethoxyquinazolin-4-ylthio)phenyl)urea]	> 1000	
COc1cc2c(Oc3cccc(NC(=O)Nc4cc(C(C)(C)C)on4)c3)ncnc2cc1OC[C@H](O)CN1CCN(C)CC1 [Ex 100, (R)-1-(5-tert-butylisoxazol-3-yl)-3-(3-(7-(2-hydroxy-3-(4-methylpiperazin-1-yl)propoxy)-6-methoxyquinazolin-4-yloxy)phenyl)urea]	< 250	< 250
COc1cc2c(Oc3cccc(NC(=O)Nc4cc(C(C)(C)C)on4)c3)ncnc2cc1OC1CCN(CC(F)F)CC1 [Ex 105, 1-(5-tert-butylisoxazol-3-yl)-3-(3-{7-[1-(2,2-difluoroethyl)piperidin-4-yloxy]-6-methoxyquinazolin-4-yloxy}phenyl)urea]	> 1000	> 1000
COc1cc2ncnc(Oc3cccc(NC(=O)Nc4cc(C(C)(C)C)on4)c3)c2cc1O[C@H]1CCN(C)C1 [Ex 109, (S)-1-(5-tert-butylisoxazol-3-yl)-3-(3-(7-methoxy-6-(1-methylpyrrolidin-3-yloxy)quinazolin-4-yloxy)phenyl)urea]	< 250	250 to 500
COc1cc2ncnc(Oc3cccc(NC(=O)Nc4cc(C5CC5)no4)c3)c2cc1OC [Ex 124, 1-(3-cyclopropylisoxazol-5-yl)-3-(3-(6,7-dimethoxyquinazolin-4-yloxy)phenyl)urea]	> 1000	> 1000
COc1cc2ncnc(Oc3cccc(NC(=O)Nc4cc(C(C)C)on4)c3)c2cc1OC [Ex 133, 1-(3-(6,7-dimethoxyquinazolin-4-yloxy)phenyl)-3-(5-isopropylisoxazol-3-yl)urea]	250 to 500	500 to 1000
COc1cc2ncnc(Oc3cccc(NC(=O)Nc4cc(C5CCCC5)on4)c3)c2cc1OC [Ex 135, 1-(5-cyclopentylisoxazol-3-yl)-3-(3-(6,7-dimethoxyquinazolin-4-yloxy)phenyl)urea]	< 250	250 to 500
COc1cc2ncnc(Oc3cccc(NC(=O)Nc4cc(C(C)(C)F)on4)c3)c2cc1OC [Ex 136, 1-(3-(6,7-dimethoxyquinazolin-4-yloxy)phenyl)-3-(5-(2-fluoropropan-2-yl)isoxazol-3-yl)urea]	< 250	250 to 500
COCCOc1cc2ncnc(Oc3cccc(NC(=O)Nc4ccc(OC)c(C(F)(F)F)c4)c3)c2cc1OC [Ex 139, 1-(4-methoxy-3-(trifluoromethyl)phenyl)-3-(3-(6-methoxy-7-(2-methoxyethoxy)quinazolin-4-yloxy)phenyl)urea]	250 to 500	> 1000
COc1cc2ncnc(Oc3cccc(NC(=O)Nc4cc(C(F)(F)F)ccn4)c3)c2cc1OC [Ex 141, 1-(3-(6,7-dimethoxyquinazolin-4-yloxy)phenyl)-3-(4-(trifluoromethyl)pyridin-2-yl)urea]	500 to 1000	> 1000
COc1cc2ncnc(Sc3cccc(NC(=O)Nc4cc(C(C)(C)C)nn4-c4ccccc4)c3)c2cc1OC [Ex 154, 1-(3-tert-butyl-1-phenyl-1H-pyrazol-5-yl)-3-(3-(6,7-dimethoxyquinazolin-4-ylthio)phenyl)urea]	< 250	
COc1cc2ncnc(Oc3cccc(NC(=O)Nc4cc(C(C)(CF)CF)nn4-c4ccccc4)c3)c2cc1OC [Ex 167, 1-[3-(1,3-difluoro-2-methylpropan-2-yl)-1-phenyl-1H-pyrazol-5-yl]-3-[3-(6,7-dimethoxyquinazolin-4-yloxy)phenyl]urea]	< 250	500 to 1000
COc1cc2ncnc(Oc3cccc(NC(=O)Nc4cc(C(F)(F)F)n(-c5ccccc5)n4)c3)c2cc1OC [Ex 169, 1-[3-(6,7-dimethoxyquinazolin-4-yloxy)phenyl]-3-[1-phenyl-5-(trifluoromethyl)-1H-pyrazol-3-yl]urea]	250 to 500	> 1000

Results, then the compound that gave them:

IC50 [1] [nM]	EC50 (A375 cells) [nM]	Structure (SMILES)
< 250	500 to 1000	COc1cc2ncnc(Sc3cccc(NC(=O)Nc4cc(C(C)(C)C)on4)c3)c2cc1OCCS(C)(=O)=O [Ex 88, 1-(5-tert-butylisoxazol-3-yl)-3-(3-(7-methoxy-6-(2-(methylsulfonyl)ethoxy)quinazolin-4-ylthio)phenyl)urea]
500 to 1000	> 1000	COc1cc2c(Oc3cccc(NC(=O)Nc4cc(C(C)(C)C)on4)c3)ncnc2cc1O[C@H]1CCN(CC(F)(F)F)C1 [Ex 104, (S)-1-(5-tert-butylisoxazol-3-yl)-3-(3-{6-methoxy-7-[1-(2,2,2-trifluoroethyl)pyrrolidin-3-yloxy]quinazolin-4-yloxy}phenyl)urea]
250 to 500	> 1000	COc1cc2ncnc(Oc3cccc(NC(=O)Nc4cc(C(C)C)no4)c3)c2cc1OC [Ex 122, 1-(3-(6,7-dimethoxyquinazolin-4-yloxy)phenyl)-3-(3-isopropylisoxazol-5-yl)urea]
250 to 500	> 1000	COc1cc2ncnc(Oc3cccc(NC(=O)Nc4cc(C5(C)CC5)on4)c3)c2cc1OC [Ex 127, 1-(3-(6,7-dimethoxyquinazolin-4-yloxy)phenyl)-3-(5-(1-methylcyclopropyl)isoxazol-3-yl)urea]
500 to 1000	> 1000	COCC(C)(C)c1cc(NC(=O)Nc2cccc(Oc3ncnc4cc(OC)c(OC)cc34)c2)on1 [Ex 128, 1-(3-(6,7-dimethoxyquinazolin-4-yloxy)phenyl)-3-(3-(1-methoxy-2-methylpropan-2-yl)isoxazol-5-yl)urea]
250 to 500	> 1000	COc1cc2ncnc(Sc3cccc(NC(=O)Nc4cc(C(C)C)on4)c3)c2cc1OC [Ex 134, 1-(3-(6,7-dimethoxyquinazolin-4-ylthio)phenyl)-3-(5-isopropylisoxazol-3-yl)urea]
250 to 500	> 1000	COc1cc2ncnc(Oc3cccc(NC(=O)Nc4cc(C(F)(F)F)nn4C)c3)c2cc1OC [Ex 164, 1-[3-(6,7-dimethoxyquinazolin-4-yloxy)phenyl]-3-[1-methyl-3-(trifluoromethyl)-1H-pyrazol-5-yl]urea]
250 to 500	500 to 1000	COc1cc2ncnc(Oc3cccc(NC(=O)Nc4cc(C(F)(F)F)n(C)n4)c3)c2cc1OC [Ex 165, 1-[3-(6,7-dimethoxyquinazolin-4-yloxy)phenyl]-3-[1-methyl-5-(trifluoromethyl)-1H-pyrazol-3-yl]urea]
